Results published in patent US6169181A, “Compounds useful to treat retroviral infections” (Pharmacia & Upjohn Company, priority 1998, dated 2001).
Values joined by “and” are separate entries in the source; they are usually repeats but may differ in a detail not shown here. Equal entries are not always repeated. Where two headings read alike, the source gives them in different places.

Legend:
HIV-1 protease [1] = molecular target: T1, HIV-1 protease (Human immunodeficiency virus type 1 group M subtype B, UniProt P04585); experiment: biochemical
In short: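 Percent inhibition came from fluorescence of FITC-tagged cleavage product, separated by filtration from uncleaved substrate captured on streptavidin-coated beads. The enzyme (10 μl of 0.1 μM) and compound acted on a biotin/FITC dual-labelled peptide for one hour at room temperature in the dark. The reaction ran in 0.1 M sodium acetate, pH 5.5, with 1.0 M NaCl and 0.05% NP-40.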

HIV-1 protease [2] = molecular target: T1, HIV-1 protease; experiment: biochemical; settings: read-out: HIV Protease FITC Assay Ki
Method: The HIV protease screening assay is based on fluorescently labeled substrate which can be resolved from nonlabeled cleavage product using special beads coated with streptavidin. The substrate is biotinylated at the amino terminal arginine and fluorescently labeled with fluorescein isothiocynate (FITC) at the carboxyl terminal lysine. […] Substrate ([…] of 0.2 μM), sample (10 μl of desired concentraion), and enzyme (10 μl of 0.1 μM) are added to a 96 well pandex plate. The assay is run in 0.1 M sodium acetate buffer at pH 5.5 in the presence of 1.0 M sodium chloride and 0.05% NP-40 with incubated in the dark for one hour at room temperature. Strepavidin coated polystyrene beads {40 μl of 0.1% (w/v)} are added and the plate is incubated in the dark for an additional half hour. The labeled cleavage product is separated from the unreacted substrate via filtration and is read on the Idexx screen machine. The data are analyzed by appropriate computer algorithms to ascertain percent inhibition values.
Determination of Ki values utilizes the same materials and equipment employed for percent inhibition studies. Two-fold serial dilutions are made for a given inhibitor from 2, 3 or 4 starting concentrations with a total of 24, 36 or 48 individual inhibitor concentrations. These dilutions are performed utilizing the BioMek robotics system. The assay consists of 10 μL of 40 nM HIV-1 protease, 10 μL of the various inhibitor concentrations, and 20 μL of 200 μM substrate (40 μL total). The reaction is allowed to proceed for 90 min at room temperature, terminated with 40 μL of avidin beads and processed (supra vide). An inhibitor with a known K; is run in parallel to verify the validity of the assay. The data is processed utilizing a computer program employing a nonlinear least square analysis of the data to generate the Ki values.

[3] = Table I, Dose 0.123 μM, read-out: Protease % Inhib
[4] = Table I, Dose 0.370 μM, read-out: Protease % Inhib
[5] = Table I, Dose 1.100 μM, read-out: Protease % Inhib
[6] = Table I, Dose 3.300 μM, read-out: Protease % Inhib
[7] = Table I, Dose 10.000 μM, read-out: Protease % Inhib
[8] = Table I, Dose 30.000 μM, read-out: Protease % Inhib

Compound	inhibition at 0.123 µM (HIV-1 protease [1]; [3]) [%]	inhibition at 0.37 µM (HIV-1 protease [1]; [4]) [%]	inhibition at 1.1 µM (HIV-1 protease [1]; [5]) [%]	inhibition at 3.3 µM (HIV-1 protease [1]; [6]) [%]	inhibition at 10 µM (HIV-1 protease [1]; [7]) [%]	inhibition at 30 µM (HIV-1 protease [1]; [8]) [%]	Ki (HIV-1 protease [2]; Table I)	other results
CCCC1(CCC)CC(O)=C(C(CC)c2cccc(NS(=O)(=O)c3ccc(C#N)cc3)c2)C(=O)O1 (centres unmarked) [Example 46, 4-Cyano-N-[3-[1-(4-hydroxy-2-oxo-6,6-dipropyl-5,6-dihydro-2H-pyran-3-yl)-propyl]-phenyl]-benzenesulfonamide]	85.9	99.2	103	97.6	91.5	74.1	2.92 nM	
CCCC1(CCc2ccccc2)CC(O)=C(C(c2cccc(NS(=O)(=O)c3cccc4cccnc34)c2)C2CC2)C(=O)O1 (centres unmarked) [Example 60, N-[3-[1-(4-Hydroxy-2-oxo-6-phenethyl-6-propyl-5,6-dihydro-2H-pyran-3-yl)-cyclopropylmethyl]-phenyl]-8-quinolinesulfonamide]	73	94.3	101	101	106	107	0.95 nM	
CCCC1(CCC)CC(O)=C(C(CC)c2cccc(NS(=O)(=O)c3cn(C)cn3)c2)C(=O)O1 (single isomer, unassigned) [Example 53, (R or S)-N-[3-[1-(4-hydroxy-2-oxo-6,6-dipropyl-5,6-dihydro-2H-pyran-3-yl)-propyl]-phenyl]-1-methyl-1H-imidazole-4-sulfonamide]				99.6	90.2	84.4	0.9 nM	PROTEASE % INHIB. (HIV-1 protease [1]; Table I, Dose 0.123 μM): 88.61%; PROTEASE % INHIB. (HIV-1 protease [1]; Table I, Dose 0.370 μM): 97.74%; PROTEASE % INHIB. (HIV-1 protease [1]; Table I, Dose 1.100 μM): 97.95%
CCCC1(CCc2ccccc2)CC(O)=C(C(c2cccc(NS(=O)(=O)c3cn(C)cn3)c2)C2CC2)C(=O)O1 (centres unmarked) [Example 61]	86.8	95.5	103	103	106	104	0.71 nM	
CCCC1(CCc2ccccc2)CC(O)=C(C(CC)c2cccc(NS(=O)(=O)c3ccc(F)cc3)c2)C(=O)O1 (centres unmarked) [Example 93A, 4-Fluoro-N-[3-[1-(4-hydroxy-2-oxo-6-phenethyl-6-propyl-5,6-dihydro-2H-pyran-3-yl)-propyl]-phenyl]-benzenesulfonamide]								inhibition at 0.123 µM (HIV-1 protease [1]; read-out: Protease % Inhib): 59.5%; inhibition at 0.37 µM (HIV-1 protease [1]; read-out: Protease % Inhib): 90.4%; inhibition at 1.1 µM (HIV-1 protease [1]; read-out: Protease % Inhib): 104%; inhibition at 3.3 µM (HIV-1 protease [1]; read-out: Protease % Inhib): 109%; inhibition at 10 µM (HIV-1 protease [1]; read-out: Protease % Inhib): 109%; inhibition at 30 µM (HIV-1 protease [1]; read-out: Protease % Inhib): 96.6%; Ki (HIV-1 protease [2]): 6.06 nM
Cn1cnc(S(=O)(=O)Nc2cccc(C(C3=C(O)CC(CCc4ccccc4)(CCc4ccccc4)OC3=O)C3CC3)c2)c1 (centres unmarked) [Example 62]	76.2	85.2	85.3	78.7	79.7	79.4	0.8 nM	
N#Cc1ccc(S(=O)(=O)Cc2cccc(C(c3c(O)c4c(oc3=O)CCCCCC4)C3CC3)c2)cc1 (centres unmarked) [Example 11, 3-[cyclopropyl[3-[(4-cyanophenylsulfonyl)methyl]phenyl]methyl]-5,6,7,8,9,10-hexahydro-4-hydroxy-2H-cycloocta[b]pyran-2-one]	78.9	95.3	100	95.1	99.7	104	1.9 nM	
CC[C@H](Cc1ccccc1)c1cc(O)c(C(c2cccc(NS(=O)(=O)c3ccc(C#N)cc3)c2)C2CC2)c(=O)o1 (single isomer, unassigned) [Example 148, N-(3-(R or S)-{Cyclopropyl-[6-(1-(R)-ethylphenethyl)-4-hydroxy-2-oxo-2H-pyran-3-yl]-methyl}-phenyl)-4-cyanobenzenesulfonamide]	81.3	91.7	95.6	90	99.2	93.5	4.77 nM and 18.1 nM	
CCCC1(CCc2ccccc2)CC(O)=C(C(CC)c2cccc(NS(=O)(=O)c3cn(C)cn3)c2)C(=O)O1 (centres unmarked) [Example 41, N-[3-[1-(4-hydroxy-2-oxo-6-phenethyl-6-propyl-5,6-dihydro-2H-pyran-3-yl)-propyl]-phenyl]-1-methyl-1H-imidazole-4-sulfonamide]								inhibition at 0.123 µM (HIV-1 protease [1]; read-out: Protease % Inhib): 103%; inhibition at 0.37 µM (HIV-1 protease [1]; read-out: Protease % Inhib): 102%; inhibition at 1.1 µM (HIV-1 protease [1]; read-out: Protease % Inhib): 104%; inhibition at 3.3 µM (HIV-1 protease [1]; read-out: Protease % Inhib): 101%; inhibition at 10 µM (HIV-1 protease [1]; read-out: Protease % Inhib): 85.9%; inhibition at 30 µM (HIV-1 protease [1]; read-out: Protease % Inhib): 72.8%; Ki (HIV-1 protease [2]): 3.17 nM
Cn1cnc(S(=O)(=O)Nc2cccc(C(c3c(O)cc(C(CC4CC4)CC4CC4)oc3=O)C3CC3)c2)c1 (centres unmarked) [Example 97, N-(3-{Cyclopropyl-[6-(2-cyclopropyl-1-cyclopropylmethyl-ethyl)-4-hydroxy-2-oxo-2H-pyran-3-yl]-methyl}-phenyl)-1-methyl-1H-imidazole-4-sulfonamide]								inhibition at 0.123 µM (HIV-1 protease [1]; read-out: Protease % Inhib): 105%; inhibition at 0.37 µM (HIV-1 protease [1]; read-out: Protease % Inhib): 106%; inhibition at 1.1 µM (HIV-1 protease [1]; read-out: Protease % Inhib): 110%; inhibition at 3.3 µM (HIV-1 protease [1]; read-out: Protease % Inhib): 107%; inhibition at 10 µM (HIV-1 protease [1]; read-out: Protease % Inhib): 116%; inhibition at 30 µM (HIV-1 protease [1]; read-out: Protease % Inhib): 115%; Ki (HIV-1 protease [2]): 1 nM
CC[C@H](Cc1ccccc1)c1cc(O)c(C(c2cccc(NS(=O)(=O)c3nccn3C)c2)C2CC2)c(=O)o1 (single isomer, unassigned) [Example 143, N-(3-(R or S)-{Cyclopropyl-[6-(1-(R)-ethylphenethyl)-4-hydroxy-2-oxo-2H-pyran-3-yl]-methyl}-phenyl)-1-methyl-1H-imidazole-2-sulfonamide]	80.8	97.7	105	102	101	103	0.8 nM	
4-Pyridylsulfonamide, N-[4-[cyclopropyl(5,6,7,8,9,10-hexahydro-4-hydroxy-2-oxo-2H-cycloocta[b]pyran-3-yl)methyl]phenyl]- [Example 240]							1.3 nM	PROTEASE % INHIB. (HIV-1 protease [1]; Table I, Dose 0.123 μM): 96.32%; PROTEASE % INHIB. (HIV-1 protease [1]; Table I, Dose 0.370 μM): 100.98%; PROTEASE % INHIB. (HIV-1 protease [1]; Table I, Dose 1.100 μM): 102.71%; PROTEASE % INHIB. (HIV-1 protease [1]; Table I, Dose 3.300 μM): 101.88%; PROTEASE % INHIB. (HIV-1 protease [1]; Table I, Dose 10.900 μM): 104.28%; PROTEASE % INHIB. (HIV-1 protease [1]; Table I, Dose 30.000 μM): 107.17%
Cn1ccnc1S(=O)(=O)Nc1cccc(C(c2c(O)cc(C(CC3CC3)CC3CC3)oc2=O)C2CC2)c1 (centres unmarked) [Example 100, N-(3-{Cyclopropyl-[6-(2-cyclopropyl-1-cyclopropylmethyl-ethyl)-4-hydroxy-2-oxo-2H-pyran-3-yl]-methyl}-phenyl)-1-methyl-1H-imidazole-2-sulfonamide]	103	101	91	96.5		101	0.73 nM	inhibition at 100 µM (HIV-1 protease [1]; Table I, Dose 100.000 μM, read-out: Protease % Inhib): 101%
CC(C)CC(c1cccc(NS(=O)(=O)c2cn(C)cn2)c1)c1c(O)c2c(oc1=O)CCCCCC2 (single isomer, unassigned) [Example 8, (R or S)-N-[3-1-(5,6,7,8,9,10-Hexahydro-4-hydroxy-2-oxo-2H-cycloocta[b]pyran-3-yl)-3-methylbutyl]phenyl]-1-methyl-1H-imidazole-4-sulfonamide]	99.2	110	103	110	105	102	0.35 nM	
